Results from patent publication US6043024A, “Use of one-dimensional nuclear magnetic resonance to identify ligands to target biomolecules” (Abbott Laboratories, priority 1997, dated 2000).
Like-named read-outs stand apart in the source and are kept apart here.

How the values were obtained:
[1] = biological target: T1, FKBP (Homo sapiens, UniProt P62942); assay: KD estimated from absence of observed chemical shift changes in 15N-HSQC spectra of FKBP; assay type: binding; conditions: compounds 2-9; estimated from absence of chemical shift changes in 15N-HSQC spectra at compound concentrations of 1.0 mM
Method: (§1) Recombinant human FK binding protein (FKBP) was prepared as described in Logan et al., J. Mol. Biol., 236: 637-648 (1994).
from the absence of observed chemical shift changes in ^15 N--HSQC
spectra of FKBP at compound concentrations of 1.0 mM, as described in the […]

[2] = biological target: T1, FKBP; assay: Screening for binding using T2-filtered one-dimensional proton NMR spectroscopy; conditions: FKBP 50 μM, spin-lock 200 ms, pH 6.5, 300K
Method: For all experiments, the T2 -filter spin-lock time was 200 ms with a spin-echo delay of 1 ms, the concentration of compound 1 was 100 μM, the concentration of FKBP was 50 μM, and the buffer was 50 mM PO4, 100 mM NaCl, pH 6.5 (95% D2 O).
For all experiments, the T2 -filter spin-lock time was 200 ms with a spin-echo delay of 1 ms, the concentration of all chemical compounds was 100 μM, the concentration of FKBP was 50 μM, and the buffer was 50 mM PO4, 100 mM NaCl, pH 6.5 (95% D2 O).
Recombinant human FK binding protein (FKBP) was prepared as described in Logan et al., J. Mol. Biol., 236: 637-648 (1994). […]
In FIG. 1A, a CPMG sequence with a spin-lock time of 200 ms is applied to the compound in the absence of FKBP. […] These differences can be detected either by direct inspection, or by a spectral differencing method in which the spectrum of […] (after the spin-lock, FIG. 1C) is subtracted from the spectrum of the compound in the presence of FKBP (also after the spin-lock, FIG. 1B), resulting in the spectrum shown in FIG. 1D. […]
(§2) All NMR spectra were recorded at 300K on a Bruker AMX500 NMR spectrometer. All spectra were recorded with 256 scans and a proton sweep width of 8333.3 Hz and a proton 90 degree pulse length of 7 μs. […] The NMR data were processed and analyzed on Silicon Graphics computers.

[3] = biological target: T1, FKBP; assay: Screening for binding using diffusion-filtered one-dimensional proton NMR spectroscopy; conditions: FKBP 50 μM, gradients 3 and 48 Gauss/cm, diffusion delay 300 ms, pH 6.5, 300K
Method: (§3) For all experiments, low and high gradient strengths correspond to 3 and 48 Gauss/cm, respectively. The high gradient strength was sufficient to eliminate the residual HDO signal in the sample. A diffusion delay time of 300 ms was used, the concentration of all chemical compounds was 100 μM, the concentration of FKBP was 50 μM, and the buffer was 50 mM PO4, 100 mM NaCl, pH 6.5 (95% D2 O).
as §3, with “48 Gauss/cm.” for “48 Gauss/cm,”, “[…]” for “50 mM”
as §1
The pulse sequence employed for exploiting the changes in diffusion rates of potential ligands in the presence of the target molecule that described by S. J. Gibbs and C. S. Johnson, Jr. J. Main. Reson. […]
as §2

[4] = biological target: T1, FKBP; conditions: cited from earlier work
[5] = mixture of compounds 1-9, each 100 μM

T1 sequence (P62942 whole entry): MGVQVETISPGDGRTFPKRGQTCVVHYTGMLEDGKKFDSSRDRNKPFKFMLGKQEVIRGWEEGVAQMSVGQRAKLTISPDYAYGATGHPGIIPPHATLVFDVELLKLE

Row | Kd [1] | SMILES | further results
1 | > 10 mM | Oc1cccc(O)c1 [Compound 5] | 
2 | > 10 mM | COc1cccc(O)c1 [Compound 3] | 
3 | > 10 mM | Nc1cc(-c2ccco2)n[nH]1 [Compound 6] | 
4 | > 10 mM | O=C(O)c1ccc(-c2cccs2)s1 [Compound 8] | 

Further lines, the compound ahead of its results:

Row | SMILES | Kd [1] | further results
5 | O=C1CCc2ccccc2O1 [Compound 2] | > 10 mM | 
6 | c1ccc(-c2ncc[nH]2)cc1 [Compound 1] |  | difference spectrum (FIG. 2E), T2-filtered, mixture of compounds 1-9 [2, 5]: positive peaks which correspond to the positions of the reonances of compound 1 in the absence of FKBP; ligand signals after the spin lock time in the presence of FKBP ([2]; single compound, T2-filter, compound 100 μM): significantly reduced; difference spectrum (FIG. 5E), diffusion-filtered, mixture of compounds 1-9 [3, 5]: positive resonances at the chemical shifts for compound 1 in the absence of FKBP; ligand binding detected using diffusion filters (FIGS. 4A-4E) ([3]; single compound 100 μM): demonstrated for FKBP binding to compound 1; Kd ([4]; compound 1, obtained from S. Shuker, et al., Science 274:1531-1534 (1996), read-out: KD): 0.2 mM; Kd ([4]; read-out: affinity (binds to FKBP)): 0.2 mM
7 | O=c1oc2ccccc2c(O)c1-c1ccccc1 [Compound 9] | > 10 mM | 
8 | OC(c1ccccc1)c1ccccc1 [Compound 4] | > 10 mM | 
9 | COc1ccc(-c2ccc(C(=O)O)cc2)cc1 [Compound 7] | > 10 mM | 
